Our source for the IC90 values is patent US20220396565A1 (Hoffmann-La Roche Inc., priority 2020, published 2022).

For this assay, the system named is Acinetobacter baumannii ATCC17978. Nature of the assay: Antimicrobial susceptibility testing: 90% growth inhibitory concentration (IC90) determination, Iso-Sensitest broth. Format: cell-based. The method in brief: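 Growth at OD600 was monitored every 20 min for 16 h at 35±2 °C, with bacteria inoculated at ~5×10^(5) CFU/ml into Iso-Sensitest medium. Compounds were tested as 10-point twofold dilutions (e.g. 10–0.02 μM final). The 90% inhibitory concentration comes from the log-phase growth.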

Where [1] appears, read: 90% growth inhibitory concentration, Acinetobacter baumannii ATCC17978, Iso-Sensitest broth, read-out: ATCC 17978 IC90.
Where [2] appears, read: Acinetobacter baumannii, ATCC17978, read-out: ATCC 17978 IC90.

Where a name gives a salt, the structure may show the parent alone. Read-outs that look alike come from different tables or passages of the source.

Usually IC90 stands for the point of the concentration-response curve where the effect stands at 90%. `COc1ccc(-c2cnc(C(=O)Nc3ccc(C(=O)N4CCN(C(=O)[C@@H]5C[C@@H](O)CN5)CC4)c(Cl)c3)n2C)c(F)c1F` [Example 106, N-[3-chloro-4-[4-[(2S,4R)-4-hydroxypyrrolidine-2-carbonyl]piperazine-1-carbonyl]phenyl]-5-(2,3-difluoro-4-methoxy-phenyl)-1-methyl-imidazole-2-carboxamide trifluoroacetate]: under setting [1], the concentration for an effect of 90% (IC90) stood at 100 nM.

Take `Cn1c(-c2ccc(OCC#N)c(F)c2F)cnc1C(=O)Nc1ccc(C(=O)N2CCN(C(=O)[C@@H]3CCCN3)CC2)c(Cl)c1` [Example 198, (S)-N-(3-chloro-4-(4-prolylpiperazine-1-carbonyl)phenyl)-5-(4-(cyanomethoxy)-2,3-difluorophenyl)-1-methyl-1H-imidazole-2-carboxamide 2,2,2-trifluoroacetate]: the 90% effect concentration (IC90) under setting [1] came to 30 nM.

As to `CN(C)CCN1CCN(C(=O)c2ccc(NC(=O)c3ncc(-c4ccc(OCC#N)c(Cl)c4)n3C)cc2Cl)CC1` [Example 269, 5-[3-Chloro-4-(cyanomethoxy)phenyl]-N-[3-chloro-4-[4-[2-(dimethylamino)ethyl]piperazine-1-carbonyl]phenyl]-1-methyl-imidazole-2-carboxamide trifluoroacetate], the IC90 under setting [2] is 70 nM.

Consider `Cn1c(-c2ccc(OCC#N)c(F)c2F)cnc1C(=O)Nc1ccc(C(=O)N2CCN(C(=O)[C@H]3CCNC3)CC2)c(Cl)c1` [Example 200, (S)-N-(3-chloro-4-(4-(pyrrolidine-3-carbonyl)piperazine-1-carbonyl)phenyl)-5-(4-(cyanomethoxy)-2,3-difluorophenyl)-1-methyl 1H-imidazole-2-carboxamide 2,2,2-trifluoroacetate], for which the IC90 under setting [2] came out at 50 nM.

With `COc1ccc(-c2cnc(C(=O)Nc3ccc(C(=O)N4CCN(CCN(C)C)CC4)c(Cl)c3)n2C)c(F)c1F` [Example 278, N-[3-chloro-4-[4-[2-(dimethylamino)ethyl]piperazine-1-carbonyl]phenyl]-5-(2,3-difluoro-4-methoxy-phenyl)-1-methyl-imidazole-2-carboxamide formate], under setting [1], the IC90 was 80 nM.

`CN(C)CC(=O)N1CCN(C(=O)c2ccc(NC(=O)c3ncc(-c4ccc(OCC#N)c(F)c4F)n3C)cc2Cl)CC1` [Example 204, N-(3-chloro-4-(4-(dimethylglycyl)piperazine-1-carbonyl)phenyl)-5-(4-(cyanomethoxy)-2,3-difluorophenyl)-1-methyl-1H-imidazole-2-carboxamide formate]: the concentration for an effect of 90% (IC90) under setting [1] was determined as 40 nM.

Regarding `COc1ccc(-c2cnc(C(=O)Nc3ccc(C(=O)N4CCN(C(=O)[C@@H]5C[C@H](O)CN5)CC4)c(Cl)c3)n2C)c(Cl)c1F` [Example 114, 5-(2-chloro-3-fluoro-4-methoxy-phenyl)-N-[3-chloro-4-[4-[(2S,4S)-4-hydroxypyrrolidine-2-carbonyl]piperazine-1-carbonyl]phenyl]-1-methyl-imidazole-2-carboxamide formate], under setting [1], the IC90 was determined as 110 nM.

In the case of `Cn1c(-c2ccc(OCC#N)c(F)c2F)cnc1C(=O)Nc1ccc(C(=O)N2CCC(C(=O)N3CCSCC3)CC2)c(Cl)c1` [Example 76, N-(3-chloro-4-(4-(thiomorpholine-4-carbonyl)piperidine-1-carbonyl)phenyl)-5-(4-(cyanomethoxy)-2,3-difluorophenyl)-1-methyl-1H-imidazole-2-carboxamide], under setting [1], the IC90 turned out to be 210 nM.

With `CNCC(=O)N1CCN(C(=O)c2ccc(NC(=O)c3ncc(-c4ccc(OCC#N)c(F)c4F)n3C)cc2C)CC1` [Example 206, 5-(4-(cyanomethoxy)-2,3-difluorophenyl)-1-methyl-N-(3-methyl-4-(4-(methylglycyl)piperazine-1-carbonyl)phenyl)-1H-imidazole-2-carboxamide 2,2,2-trifluoroacetate], the concentration for an effect of 90% (IC90) under setting [1] worked out at 100 nM.

In the case of `Cc1cc(NC(=O)c2ncc(-c3ccc(OCC#N)c(F)c3F)n2C)ccc1C(=O)N1CCN(C(=O)[C@@H]2CCNC2)CC1` [Example 203, (R)-5-(4-(cyanomethoxy)-2,3-difluorophenyl)-1-methyl-N-(3-methyl-4-(4-(pyrrolidine-3-carbonyl)piperazine-1-carbonyl)phenyl)-1H-imidazole-2-carboxamide 2,2,2-trifluoroacetate], the concentration for an effect of 90% (IC90) under setting [1] came out at 90 nM.
